The nature of data set [1]: General toxicity after repeated administration, rats. The following applies: rat, in vivo, iv, for 28 days, read-out: NOEL (no observable effect level) i.v. The text has this: (§1) General toxicity after repeated administration NOEL (no observable effect level)
Data set [2] deals with rats. Briefly: Acute toxicity. It counts as in vivo.
Data set [3] in a line: General toxicity after repeated administration, rabbits. The following applies: rabbit, in vivo, topical or ocular, dermal, for 28 days, repeated administration (except for local toxicity), read-out: NOEL (no observable effect level) dermal.
Description: as §1

As to `Cc1cc2nc3c4ccccc4n(CCN(C)C)c3nc2cc1C` [compound II, 2,3-dimethyl-6-(N,N-dimethylaminoethyl)-6H-indoloquinoxaline], the NOAEL at 672 h in data set [1] came to 12.5 mg/kg; in data set [3] it was 200 mg/kg. Moreover, the LD i.v. in data set [2] (i.v.) is reported as more than 100 mg/kg. Further, the LD p.o. in data set [2] (p.o.) was more than 800 mg/kg.

For the origin of these results see patent US5866575A, “Method of inhibiting HIV integrase” (Lundblad; Leif J. I., priority 1994, dated 1999).
